In data set [1] the target is T1, recombinant human Cox-2 (r-hu Cox-2) (Homo sapiens, UniProt P35354).
T1 construct: made in house; host or cells: baculovirus/Sf9 insect cells (microsomes)
T1 sequence (P35354 18-604): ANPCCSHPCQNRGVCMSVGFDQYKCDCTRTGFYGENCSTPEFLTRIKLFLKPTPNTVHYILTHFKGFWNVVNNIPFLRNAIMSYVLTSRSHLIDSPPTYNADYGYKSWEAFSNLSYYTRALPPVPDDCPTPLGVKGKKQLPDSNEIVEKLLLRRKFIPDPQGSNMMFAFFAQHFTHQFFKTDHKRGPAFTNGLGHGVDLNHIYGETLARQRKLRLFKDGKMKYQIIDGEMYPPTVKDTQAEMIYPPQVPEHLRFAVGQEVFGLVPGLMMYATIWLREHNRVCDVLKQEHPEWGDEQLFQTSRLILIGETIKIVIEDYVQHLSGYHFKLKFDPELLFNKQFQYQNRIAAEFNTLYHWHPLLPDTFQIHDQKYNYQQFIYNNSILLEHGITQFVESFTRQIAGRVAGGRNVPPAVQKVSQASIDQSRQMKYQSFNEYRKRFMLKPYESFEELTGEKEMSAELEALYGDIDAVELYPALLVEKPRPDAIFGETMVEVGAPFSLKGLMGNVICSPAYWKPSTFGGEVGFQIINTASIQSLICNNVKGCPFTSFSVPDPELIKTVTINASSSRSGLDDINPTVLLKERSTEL
As to the kind of experiment: Recombinant human PGHS-2 enzyme assay (RHUCX2). It counts as biochemical. Conditions: for IC50: read-out: RHUCX2 IC50 (parenthetical value); for inhibition at 0.01 µM / inhibition at 0.1 µM / inhibition at 1 µM / inhibition at 10 µM: read-out: RHUCX2 % Inh. at Dose. The method in brief:
(§1)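 PGE2 by EIA (optical density) → % inhibition vs control-group mean → IC50 from linear regression.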

For data set [2], the target named is T2, recombinant human Cox-1 (r-hu Cox1) (Homo sapiens, UniProt P23219).
T2 construct: made in house; host or cells: baculovirus/Sf9 insect cells (microsomes)
As to the kind of experiment: Recombinant human PGHS-1 enzyme assay (RHUCX1). Format: biochemical. Put shortly:
as §1

Where [3] appears, read: read-out: RHUCX1 % Inh. at Dose.

The results in this text go back to patent US20020028938A1, “Prostaglandin endoperoxide H synthase biosynthesis inhibitors” (priority 1997, published 2002).

The term IC50 denotes the concentration needed to halve the response being measured. One may read the melting point as the temperature, or range, at which the solid turns liquid.

T2 sequence (P23219 24-599): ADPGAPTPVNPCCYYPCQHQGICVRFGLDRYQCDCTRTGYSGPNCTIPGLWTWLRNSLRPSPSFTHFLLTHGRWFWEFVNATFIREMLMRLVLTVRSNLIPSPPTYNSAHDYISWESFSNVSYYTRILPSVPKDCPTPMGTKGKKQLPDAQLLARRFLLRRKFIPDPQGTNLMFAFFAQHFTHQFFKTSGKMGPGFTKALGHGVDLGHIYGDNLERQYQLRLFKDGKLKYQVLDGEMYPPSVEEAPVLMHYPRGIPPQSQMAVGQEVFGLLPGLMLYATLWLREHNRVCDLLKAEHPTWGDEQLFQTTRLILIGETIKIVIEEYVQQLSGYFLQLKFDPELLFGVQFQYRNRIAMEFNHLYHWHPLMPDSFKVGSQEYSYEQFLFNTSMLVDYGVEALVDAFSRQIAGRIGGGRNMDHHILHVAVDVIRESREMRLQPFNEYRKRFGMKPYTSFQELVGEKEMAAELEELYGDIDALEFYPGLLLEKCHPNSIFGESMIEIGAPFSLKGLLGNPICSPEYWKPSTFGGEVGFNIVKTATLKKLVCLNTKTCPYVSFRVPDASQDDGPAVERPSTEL

As for `CC1(n2ncc(-c3ccc(S(C)(=O)=O)cc3)c(-c3ccc(F)cc3)c2=O)CCCC1` [Example 134], the melting point lay in the range of 107 to 110 °C. Besides, the IC50 in data set [1] is 53 nM. Also, in data set [2] (setting [3]), the inhibition at 10 µM worked out at 35% and the inhibition at 100 µM was 54%.
Molecule `CC(c1cccc(F)c1)n1ncc(-c2ccc(S(N)(=O)=O)cc2)c(-c2ccc(F)cc2)c1=O` (stereo not drawn) [Example 144, 2-(α-Methyl-3-fluorobenzyl)-4-(4-fluorophenyl)-5-[4-(aminosulfonyl)phenyl]-3(2H)-pyridazinone] came in with a melting point of 192 to 194 °C. Also, in data set [1], the inhibition at 0.01 µM stood at 65%, the inhibition at 0.1 µM came to 78% and the inhibition at 1 µM amounted to 88%. Besides, in data set [2] (read-out: RHUCX1 IC50 (parenthetical value)), the IC50 turned out to be 58 nM.
In turn, `NS(=O)(=O)c1ccc(-c2cnn(Cc3ccc(F)cc3)c(=O)c2-c2ccc(F)cc2)cc1` [Example 150, 2-(4-Fluorobenzyl)-4-(4-fluorophenyl)-5-[4-(aminosulfonyl)phenyl]-3(2H)-pyridazinone] displayed a melting point of 237 to 239 °C. In data set [1], the inhibition at 0.1 µM was determined as 100%. In addition, in data set [2] (setting [3]), the inhibition at 10 µM stood at 39% and the inhibition at 100 µM turned out to be 56%.
In turn, `CCCCC(CC)COc1c(-c2ccc(S(C)(=O)=O)cc2)cnn(-c2ccc(F)cc2)c1=O` (centres unmarked) [Example 178, 2-(4-Fluorophenyl)-4-(2-ethyl-1-hexyloxy)-5-[4-(methylsulfonyl)phenyl]-3(2H)-pyridazinone] displayed a melting point of 120 to 122 °C. In addition, the inhibition at 10 µM in data set [1] was 34%. Also, in data set [2] (setting [3]), the inhibition at 100 µM worked out at 6%.
Take `CS(=O)(=O)c1ccc(-c2cnn(-c3cc(Cl)cc(Cl)c3)c(=O)c2-c2ccc(F)cc2)cc1` [Example 188, 2-(3,5-Dichlorophenyl)-4-(4-fluorophenyl)-5-[4-(methylsulfonyl)phenyl]-3-(2H)-pyridazinone]: the melting point lay within 289 to 294 °C. Besides, the IC50 in data set [1] was 526 nM. Also, in data set [2] (setting [3]), the inhibition at 100 µM turned out to be 18%.
The like results for `CS(=O)(=O)c1ccc(-c2cnn(-c3ccc(F)cc3)c(=O)c2Cc2ccccc2)cc1` [Example 230, 2-(4-Fluorophenyl)-4-benzyl-5-[4-(methylsulfonyl)phenyl]-3(2H)-pyridazinone] were, in that order, 180 to 182 °C, 215 nM and 4%.
`CS(=O)(=O)c1ccc(-c2cnn(-c3ccc(F)c(F)c3)c(=O)c2C2CCCCC2)cc1` [Example 232, 2-(3,4-Difluorophenyl)-4-cyclohexyl-5-[4-(methylsulfonyl)phenyl]-3(2H)-pyrdazinone] came in with a melting point of 80 to 83 °C. Further, the IC50 in data set [1] worked out at 24 nM. In data set [2] (setting [3]), the inhibition at 100 µM is 23%.
For `Cc1ccc(-c2c(-c3ccc(S(C)(=O)=O)cc3)cnn(-c3ccc(F)c(F)c3)c2=O)cc1` [Example 234] the same measures were 190 to 192 °C, 328 nM and 0%.
For `Cc1cc(-c2c(-c3ccc(S(C)(=O)=O)cc3)cnn(-c3ccc(F)c(F)c3)c2=O)ccc1F` [Example 235, 2-(3,4-Difluorophenyl)-4-(4-fluoro-3-methylphenyl)-5-[4-(methylsulfonyl)phenyl]-3(2H)-pyridazinone], the melting point fell in the range of 166 to 168 °C. In addition, the IC50 in data set [1] was 210 nM. For the same molecule, the inhibition at 100 µM in data set [2] (setting [3]) is 22%.
Turning to `CS(=O)(=O)c1ccc(-c2cnn(CC(F)(F)F)c(=O)c2C2CCCCC2)cc1` [Example 240, 2-(2,2,2-Trifluoroethyl)-4-cyclohexyl-5-[4-(methylsulfonyl)phenyl]-3(2H)-pyridazinone], the melting point is 215 to 218 °C. Also, in data set [1], the half-inhibitory concentration (IC50) is 297 nM. Besides, the inhibition at 100 µM in data set [2] (setting [3]) stood at 14%.
`CS(=O)(=O)c1ccc(-c2cnn(-c3ccc(F)c(Cl)c3)c(=O)c2Cc2cccc(F)c2)cc1` [Example 249, 2-(3-Chloro-4-fluorophenyl)-4-(3-fluorobenzyl)-5-[4-(methylsulfonyl)phenyl]-3(2H)-pyridazinone] had a melting point of 101 to 103 °C. Also, in data set [1], the inhibition at 0.01 µM is 43%, the inhibition at 0.1 µM amounted to 68% and the inhibition at 1 µM was determined as 98%. In data set [2] (setting [3]), the inhibition at 100 µM came out at 6%.
As to `NS(=O)(=O)c1ccc(-c2cnn(-c3ccc(F)cc3)c(=O)c2Cc2cccc(F)c2)cc1` [Example 253, 2-(4-Fluorophenyl)-4-(3-fluorobenzyl)-5-[4-(aminosulfonyl)phenyl]-3(2H)-pyridazinone], the melting point fell in the range of 199 to 202 °C. Besides, the IC50 in data set [1] came to 272 nM. In data set [2] (setting [3]), the inhibition at 10 µM was found to be 29% and the inhibition at 100 µM came out at 77%.
`CS(=O)(=O)c1ccc(-c2cnn(-c3ccc(F)c(F)c3)c(=O)c2C#Cc2ccccc2)cc1` [Example 254, 2-(3,4-Difluorophenyl)-4-(phenylethynyl)-5-[4-(methylsulfonyl)phenyl]-3(2H)-pyridazinone] displayed a melting point of 211 to 213 °C. For the same molecule, in data set [1], the inhibition at 0.1 µM worked out at 48% and the inhibition at 1 µM was determined as 84%. Besides, the inhibition at 100 µM in data set [2] (setting [3]) stood at 7%.
`CS(=O)(=O)c1ccc(-c2cnn(CC(F)(F)F)c(=O)c2Oc2cccnc2)cc1` [Example 265, 2-(2,2,2-Trifluoroethyl)-4-(3-pyridyloxy)-5-[4-(methylsulfonyl)phenyl]-3(2H)-pyridazinone] had a melting point of 191 to 193 °C. In data set [1], the inhibition at 0.1 µM was 33%, the inhibition at 1 µM stood at 48% and the inhibition at 10 µM stood at 53%. In data set [2] (setting [3]), the inhibition at 100 µM was 8%.
For the molecule `CS(=O)(=O)c1ccc(-c2cnn(-c3ccc(F)c(F)c3)c(=O)c2Oc2ccc(Cl)cc2)cc1` [Example 281, 2-(3,4-Difluorophenyl)-4-(4-chlorophenoxy)-5-[4-(methylsulfonyl)phenyl]-3(2H)-pyridazinone], the melting point was 192 to 194 °C. For the same molecule, in data set [1], the inhibition at 0.01 µM worked out at 47%, the inhibition at 0.1 µM was 52% and the inhibition at 1 µM was found to be 71%. For the same molecule, the inhibition at 100 µM in data set [2] (setting [3]) amounted to 7%.
`CS(=O)(=O)c1ccc(-c2cnn(-c3ccc(F)cc3)c(=O)c2N2CCCCC2)cc1` [Example 355, 2-(4-Fluorophenyl)-4-(1-piperidinyl)-5-[4-(methylsulfonyl)phenyl]-3(2H)-pyridazinone]: the melting point was in the range of 80 to 100 °C. For the same molecule, in data set [1], the inhibition at 0.1 µM turned out to be 46%, the inhibition at 1 µM was determined as 66% and the inhibition at 10 µM is 79%. Further, the inhibition at 100 µM in data set [2] (setting [3]) amounted to 0%.
As for `CS(=O)(=O)c1ccc(-c2cnn(-c3cccc(Cl)c3)c(=O)c2Cc2ccc(F)cc2)cc1` [Example 369, 2-(3-Chlorophenyl)-4-(4-fluorobenzyl)-5-[4-(methylsulfonyl)phenyl]-3(2H)-pyridazinone], the melting point lay in the range of 183 to 185 °C. Further, in data set [1], the inhibition at 0.1 µM came to 48% and the inhibition at 1 µM worked out at 70%. Besides, the inhibition at 100 µM in data set [2] (setting [3]) is 0%.
`Cc1ccc(-c2c(-c3ccc(S(C)(=O)=O)cc3)cnn(-c3ccc(F)c(F)c3)c2=O)cc1F` [Example 371, 2-(3,4-Difluorophenyl)-4-(3-fluoro-4-methylphenyl)-5-[4-(methylsulfonyl)phenyl]-3(2H)-pyridazinone]: the melting point lay within 204 to 206 °C. In data set [1], the IC50 worked out at 166 nM. Also, the inhibition at 100 µM in data set [2] (setting [3]) came to 8%.
In the case of `CS(=O)(=O)c1ccc(-c2cnn(-c3cccc(Cl)c3)c(=O)c2CCc2ccccc2)cc1` [Example 372, 2-(3-Chlorophenyl)-4-(phenethyl)-5-[4-(methylsulfonyl)phenyl]-3(2H)-pyridazinone], the melting point lay in the range of 142 to 145 °C. Also, in data set [1], the inhibition at 0.1 µM is 59%, the inhibition at 1 µM came out at 88% and the inhibition at 10 µM was 94%. The inhibition at 100 µM in data set [2] (setting [3]) amounted to 0%.
`CS(=O)(=O)c1ccc(-c2cnn(-c3cccc(Cl)c3)c(=O)c2OCc2ccccc2)cc1` [Example 374, 2-(3-Chlorophenyl)-4-(benzyloxy)-5-[4-(methylsulfonyl)phenyl]-3(2H)-pyridazinone] displayed a melting point of 110 to 113 °C. In addition, the IC50 in data set [1] was 20 nM. The inhibition at 100 µM in data set [2] (setting [3]) stood at 2%.
The molecule `Cc1ccc(-c2c(-c3ccc(S(N)(=O)=O)cc3)cnn(-c3ccc(F)c(F)c3)c2=O)cc1F` [Example 386, 2-(3,4-Difluorophenyl)-4-(3-fluoro-4-methylphenyl)-5-[4-(aminosulfonyl)phenyl]-3(2H)-pyridazinone] displayed a melting point of 198 to 200 °C. In data set [1], the inhibition at 0.01 µM stood at 58%, the inhibition at 0.1 µM worked out at 63% and the inhibition at 1 µM was found to be 83%. In data set [2] (1 μM, read-out: RHUCX1 % Inh. at Dose), the inhibition at 1 µM worked out at 47%. Besides, in data set [2] (setting [3]), the inhibition at 100 µM is 58%.
